biological target: Beta-secretase 1 (Homo sapiens) (UniProt P56817); experiment: Inhibition of recombinant BACE1 (unknown origin) using synthetic dodecapeptide with BACE1 cleavage sequence of Swedish type as substrate at 2 mM after 30 mins
Sequence (P56817 whole entry): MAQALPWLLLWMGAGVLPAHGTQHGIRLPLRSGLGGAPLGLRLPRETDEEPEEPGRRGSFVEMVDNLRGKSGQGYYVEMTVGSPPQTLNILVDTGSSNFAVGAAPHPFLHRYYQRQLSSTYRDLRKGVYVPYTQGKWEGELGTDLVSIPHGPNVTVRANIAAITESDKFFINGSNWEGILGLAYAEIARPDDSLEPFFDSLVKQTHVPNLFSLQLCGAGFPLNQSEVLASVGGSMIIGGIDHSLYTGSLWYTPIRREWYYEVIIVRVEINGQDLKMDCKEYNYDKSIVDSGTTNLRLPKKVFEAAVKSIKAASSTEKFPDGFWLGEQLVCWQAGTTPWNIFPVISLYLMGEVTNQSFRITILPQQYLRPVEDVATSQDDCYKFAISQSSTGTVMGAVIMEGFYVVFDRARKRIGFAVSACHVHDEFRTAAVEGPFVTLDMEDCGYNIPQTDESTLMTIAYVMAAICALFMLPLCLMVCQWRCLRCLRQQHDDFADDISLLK

Row | SMILES | inhibition [%]
1 | COc1cccc(C(O)CCCCc2ccc(NC(C)=O)nc2)c1 (stereo unspecified) | 20
2 | COCOc1ccc(C(=O)Nc2ccc(CCCCC(O)c3cccc(OC)c3)cn2)cc1 (stereo unspecified) | 19
3 | COc1cccc(CCCCc2cccc(NC(C)=O)n2)c1 | 21
4 | COc1cccc(C(O)CCCCc2cccc(NC(C)=O)n2)c1 (stereo unspecified) | 56

The next lines start with the values.

Row | inhibition [%] | SMILES
5 | 20 | COc1cccc(CCCCc2ccc(NC(C)=O)nc2)c1
6 | 18 | COc1cccc(C(O)CCc2cccnc2NC(C)=O)c1 (stereo unspecified)

From ChEMBL document CHEMBL3632491, “Synthesis and evaluation of aminopyridine derivatives as potential BACE1 inhibitors” (Bioorg Med Chem Lett, 2015)
